Positions count from the first letter of the chain named. Values joined by “and” are separate entries in the source; they are usually repeats but may differ in a detail not shown here. Identical values can stand only once. Like-named read-outs stand apart in the source and are kept apart here.
Columns and labels:
StTdcB = tested on: StTdcB; design: method as in PMID 17046821; conditions: 5 mM AMP; cited from earlier work
hSR [1] = target: T1, hSR (Homo sapiens, UniProt Q9GZT4); design: method as in PMID 23992455; conditions: cited from earlier work; for Kd: hSR
T1 construct: His tag; made in house; host or cells: Escherichia coli (co-expressed with chaperones)
T1 sequence (Q9GZT4 1-340): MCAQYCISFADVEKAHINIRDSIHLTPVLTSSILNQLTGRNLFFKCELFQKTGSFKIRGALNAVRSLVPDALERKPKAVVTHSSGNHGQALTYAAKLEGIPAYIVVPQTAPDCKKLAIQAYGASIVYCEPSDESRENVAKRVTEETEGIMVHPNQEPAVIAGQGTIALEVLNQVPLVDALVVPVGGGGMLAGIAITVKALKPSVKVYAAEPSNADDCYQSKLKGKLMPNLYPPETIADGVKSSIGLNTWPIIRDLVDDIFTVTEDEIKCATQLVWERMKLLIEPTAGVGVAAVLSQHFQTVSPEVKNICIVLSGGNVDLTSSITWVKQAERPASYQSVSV

Q89M-hSR [2] = target: T2, Q89M-hSR (Homo sapiens, UniProt Q9GZT4, Q89M); test: Fluorimetric titrations (PLP fluorescence emission); assay type: binding
T2 construct: hexa-His; made in house; host or cells: E. coli BL21 CodonPlus (DE3)-RIL with GroEL/GroES
T2 sequence (Q9GZT4 1-340 Q89M): T1 sequence (Q9GZT4 1-340) with Q89M
Description: Fluorescence emission spectra upon excitation at 412 nm were collected using a FluoroMax-3 fluorometer (HORIBA Jobin Yvon, Kyoto, Japan) at 20.0 ± 0.5 °C. […] Binding of either glycine or ATP was measured by direct titrations of the protein solution in the range 0–1.2 mM and 0–1.0 mM, respectively. […] Spectra were corrected for buffer contribution. Far-UV circular dichroism spectra (195–260 nm) were collected using a JASCO J-715 spectropolarimeter (Easton, MD, USA). […] Each spectrum is the average of three independent measurements.
(§1) The fluorescence emission intensity was collected at 480 nm for glycine titration, at 492 nm for ATP titration and at 478 nm for ATP titration in the presence of glycine. The kinetic parameters were calculated using the Michaelis –Menten equation:3 v0=Vmax⋅[S]/Km+[S] where v0 is the initial enzymatic rate, Vmax is the rate at substrate saturation, Km is the Michaelis constant and [S] is the substrate concentration.

hSR [3] = target: T1, hSR; design: method as in PMID 23992455; conditions: wt hSR, cited from earlier work
Q89M-hSR [4] = target: T2, Q89M-hSR; test: L-Ser dehydration (LDH-coupled assay); assay type: biochemical; conditions: L-Ser dehydration by Q89M-hSR, 2 mM ATP vs absence of nucleotide
Description: (§2) The initial velocity of L-serine dehydration by hSR was monitored by a coupled assay with lactate dehydrogenase (LDH)[5] as previously reported. Nicotinamide adenine dinucleotide (NADH) consumption was followed at 340 nm using a Varian Cary4000 spectrophotometer. The assay solution in buffer A contained 5 mM DTT, 30 U/ml LDH and 300 μM NADH. The concentration of magnesium used in the assay was always higher than or equal to the concentration of ATP. If not otherwise stated, it was set to 2 mM. The protein concentration used in the assay for L-Ser dehydration was 0.4 and 1.6 μM in the presence and absence of 2 mM ATP, respectively. The concentration used in the assay for D-Ser dehydration was 3.1 and 6.0 μM in the presence and absence of ATP, respectively.
(§3) The half-maximal activation (EC50) caused by ATP binding to hSR was calculated with Eq. (1):1 vi/v0=a⋅[ATP]/EC50+[ATP] where vi is the velocity of the reaction catalysed by the enzyme in presence of a defined ATP concentration, v0 is the velocity of the reaction catalysed by the enzyme in the absence of ATP and a is the difference between the maximum and the basal activity. The dissociation constant (KD) of ligands for hSR calculated by fluorimetric titrations was calculated with Eq. (2):2 y=y0+a⋅[L]/KD+[L] where y is the fluorescence emission intensity, [L] is the ligand concentration, y0 is an offset and a is the amplitude. The fluorescence emission intensity was collected at 480 nm for glycine titration, at 492 nm for ATP titration and at 478 nm for ATP titration in the presence of glycine. The kinetic parameters were calculated using the Michaelis –Menten equation:3 v0=Vmax⋅[S]/Km+[S] where v0 is the initial enzymatic rate, Vmax is the rate at substrate saturation, Km is the Michaelis constant and [S] is the substrate concentration. Catalytic efficiency for the dehydratase activity of Q89A-hSR on D-Ser was calculated at [D-Ser] < Km, where equation (3) becomes v0≅Vmax/Km .

Q89A-hSR [5] = target: T3, Q89A-hSR (Homo sapiens, UniProt Q9GZT4, Q89A); test: L-Ser dehydration (LDH-coupled assay); assay type: biochemical; conditions: L-Ser dehydration by Q89A-hSR, 2 mM ATP vs absence of nucleotide
T3 construct: hexa-His; made in house; host or cells: E. coli BL21 CodonPlus (DE3)-RIL with GroEL/GroES
T3 sequence (Q9GZT4 1-340 Q89A): T1 sequence (Q9GZT4 1-340) with Q89A
Description: as §2, §3

Q89M-hSR [6] = target: T2, Q89M-hSR; test: D-Ser dehydration (LDH-coupled assay); assay type: biochemical; conditions: D-Ser dehydration by Q89M-hSR, 2 mM ATP vs absence of nucleotide
Description: as §2, §3

Q89A-hSR [7] = target: T3, Q89A-hSR; test: D-Ser dehydration (LDH-coupled assay); assay type: biochemical; conditions: D-Ser dehydration by Q89A-hSR, ATP vs absence of nucleotide
Description: as §2, §3

hSR [8] = target: T1, hSR; test: D-Ser dehydration (LDH-coupled assay); assay type: biochemical; conditions: D-Ser dehydration by hSR
Description: as §2, §3

Q89M-hSR [9] = target: T2, Q89M-hSR; test: Activation of L-Ser dehydratase activity by ATP; assay type: biochemical
Description: (§4) Nicotinamide adenine dinucleotide (NADH) consumption was followed at 340 nm using a Varian Cary4000 spectrophotometer. The assay solution in buffer A contained 5 mM DTT, 30 U/ml LDH and 300 μM NADH. The concentration of magnesium used in the assay was always higher than or equal to the concentration of ATP. If not otherwise stated, it was set to 2 mM. […] The concentration used in the assay for D-Ser dehydration was 3.1 and 6.0 μM in the presence and absence of ATP, respectively.
as §1

Q89A-hSR [10] = target: T3, Q89A-hSR; test: Activation of L-Ser dehydratase activity by ATP; assay type: biochemical
Description: as §4, §1

Q89M-hSR [11] = target: T2, Q89M-hSR; test: L-Ser racemisation (DAAO-coupled discontinuous assay); assay type: biochemical; conditions: L-Ser racemisation by Q89M-hSR, 2 mM ATP vs absence of nucleotide
Description: (§5) The formation of D-serine as a function of L-serine concentration was determined using a discontinuous assay, based on oxidation of D-serine by the enzyme DAAO (Sigma Aldrich, A5222)[18],[37],[54]. This reaction produces hydrogen peroxide, that is used by the horseradish peroxidase to oxidize o-dianisidine dihydrochloride to form a chromophoric product. After the addition of sulphuric acid to increase the solubility, the concentration of this product can be measured at 550 nm. L-serine at various final concentrations was added to buffer A containing 1.5 µM hSR, in the absence and presence of 2 mM ATP. The reaction mixture was incubated at 37 °C and aliquots were periodically removed to determine D-serine concentration. L-serine was purified from any D-serine contaminations through 48 hours of incubation with 400 U/ml of DAAO and 100 U/ml of catalase, which were subsequently thermally inactivated. Absolute D-serine concentrations were determined using calibrations curves obtained by reacting known D-serine concentrations with DAAO. Absorbance signal was acquired by a Halo LED 96 plate reader (Dynamica Scientific, UK).
as §3, with “The kinetic parameters were calculated using the Michaelis –Menten equation:3 v0=Vmax⋅[S]/Km+[S] where v0 is the initial enzymatic rate, Vmax is the rate at substrate saturation, Km is the Michaelis constant and [S] is the substrate concentration.” left out

Q89A-hSR [12] = target: T3, Q89A-hSR; test: as above; assay type: biochemical; conditions: L-Ser racemisation by Q89A-hSR, 2 mM ATP vs absence of nucleotide
Description: as §5
as §3, with “The kinetic parameters were calculated using the Michaelis –Menten equation:3 v0=Vmax⋅[S]/Km+[S] where v0 is the initial enzymatic rate, Vmax is the rate at substrate saturation, Km is the Michaelis constant and [S] is the substrate concentration.” left out

hSR [13] = target: T1, hSR; test: as above; assay type: biochemical; conditions: L-Ser racemisation by hSR, 2 mM ATP vs absence of nucleotide
Description: as §5
as §3, with “The kinetic parameters were calculated using the Michaelis –Menten equation:3 v0=Vmax⋅[S]/Km+[S] where v0 is the initial enzymatic rate, Vmax is the rate at substrate saturation, Km is the Michaelis constant and [S] is the substrate concentration.” left out

hSR [14] = target: T1, hSR; test: L-Ser dehydration (LDH-coupled assay); assay type: biochemical; conditions: hSR saturated with ATP
Description: as §2, §3

[15] = 2 mM ATP, preliminary, data not shown

In the case of `Nc1ncnc2c1ncn2[C@@H]1O[C@H](COP(=O)(O)O)[C@@H](O)[C@H]1O` [AMP], the “fold decrease in Km” value (StTdcB) is listed as 7.7 fold and the “fold increase in Vmax” value (StTdcB) is listed as 3 fold.
In the case of `Nc1ncnc2c1ncn2[C@@H]1O[C@H](COP(=O)(O)OP(=O)(O)OP(=O)(O)O)[C@@H](O)[C@H]1O` [ATP], the Kd (hSR [1]; ligand 2 Glycine) is listed as 4.9 ± 0.6 µM, the “Hill coefficient of nucleotide binding” value (hSR [1]; human enzyme) is listed as “about 2” and the “Hill coefficient n, fluorimetric titration with ATP” value (hSR [1]; wt hSR, sigmoidal fit) is listed as 1.8 ± 0.1. The EC50 (hSR [1]; wt hSR, sigmoidal fit, read-out: EC50 of ATP, fluorimetric titration) was 257 ± 10 µM, the “difference between KD and EC50 of ATP” value (Q89M-hSR [2]; Q89M-hSR, KD without substrate vs EC50 with 300 mM L-Ser) was 6 fold and the “cooperativity of ATP binding (fluorimetric titration)” value (Q89M-hSR [2]; Q89M-hSR, absence of substrate) was “no cooperativity”. For the same molecule, the “fold increase in fluorescence emission intensity upon ATP binding” value (Q89M-hSR [2]; Q89M-hSR, excitation at 412 nm, absence of substrate) was 1.65 fold, the Kd (Q89M-hSR [2]; Q89M-hSR, ligand 2 Glycine (1 mM)) was 48 ± 5 µM and the Kd (Q89M-hSR [2]; Q89M-hSR, no ligand 2 (absence of substrate/glycine)) was 154 ± 13 µM. The “fold increase of specific dehydratase activity” value (hSR [3]; 2 mM ATP) was 7 fold, the “Hill coefficient n of ATP dependence of L-Ser dehydratase activity” value (hSR [3]; sigmoidal fit) was 1.7 ± 0.2 and 1.7 and the EC50 (hSR [3]; sigmoidal fit, read-out: half maximal effective concentration of ATP (EC50), L-Ser dehydratase activity) was 220 ± 10 µM. The “Increase (fold increase of catalytic efficiency kcat/Km in the presence of ATP)” value (Q89M-hSR [4]) was 3.9 fold, the “Increase (fold increase of catalytic efficiency kcat/Km in the presence of ATP)” value (Q89A-hSR [5]) was 3.3 fold and the “Increase (fold increase of catalytic efficiency kcat/Km in the presence of ATP)” value (Q89M-hSR [6]) was 2.8 fold. The “Increase (fold increase of catalytic efficiency kcat/Km in the presence of ATP)” value (Q89A-hSR [7]) was 2.3 fold, the “Increase (fold increase of catalytic efficiency kcat/Km in the presence of ATP)” value (hSR [8]; 2 mM ATP vs absence of nucleotide) was 4.0 fold and the “fold increase of specific dehydratase activity” value (Q89M-hSR [9]; [15]) was “about 4 fold”. The “effect on activity of further addition of ATP” value (Q89M-hSR [9]; ATP up to 10 mM) was “not increased”, the “cooperativity of ATP binding (activity assay)” value (Q89M-hSR [9]; saturating 300 mM L-Ser) was “non-cooperative” and the EC50 (Q89M-hSR [9]; saturating 300 mM L-Ser, read-out: half-maximal activation (EC50) by ATP, L-Ser dehydratase activity) was 21 ± 2 µM. For the same molecule, the “fold increase of specific dehydratase activity” value (Q89A-hSR [10]; [15]) was “about 4 fold”, the “effect on activity of further addition of ATP” value (Q89A-hSR [10]; ATP up to 10 mM) was “not increased” and the “cooperativity of ATP binding (activity assay)” value (Q89A-hSR [10]; saturating 300 mM L-Ser) was “non-cooperative”. For the same molecule, the “Increase (fold increase of catalytic efficiency kcat/Km in the presence of ATP)” value (Q89M-hSR [11]) was 1.8 fold, the “Increase (fold increase of catalytic efficiency kcat/Km in the presence of ATP)” value (Q89A-hSR [12]) was 1.6 fold and the “Increase (fold increase of catalytic efficiency kcat/Km in the presence of ATP)” value (hSR [13]) was 2 fold and 1.9 fold.
Work on `N[C@H](CO)C(=O)O` [D-Ser, D-serine] yielded a kcat (hSR [8]; −ATP) of 0.0283 ± 0.0017 s⁻¹.
In the case of `NCC(=O)O` [Glycine], the Kd (hSR [1]; ligand 2 ATP) is given as 470 ± 30 µM, the Kd (hSR [1]; no ligand 2) is given as 7000 ± 300 µM and the “fold higher affinity for Q89M-hSR (vs wt hSR)” value (Q89M-hSR [2]; Q89M-hSR vs hSR) is given as “more than 60 fold”. For the same molecule, the Kd (Q89M-hSR [2]; Q89M-hSR, ligand 2 ATP (2 mM)) was 28 ± 3 µM and the Kd (Q89M-hSR [2]; Q89M-hSR, no ligand 2 (absence of ATP)) was 110 ± 2 µM.
In the case of `N[C@@H](CO)C(=O)O` [L-Ser, L-serine], the “dehydratase activity efficiency relative to racemisation” value (hSR [14]) is reported as 15 fold.

Reference: publication PMC5998037, “Glutamine 89 is a key residue in the allosteric modulation of human serine racemase activity by ATP” (Scientific Reports, 2018)
